Results on two molecules are retold here after paper PMC2697262 (Biochemistry, 2009).

One may read the Ki as a measure of affinity in units of concentration, obtained from inhibition or displacement. Lower therefore signals higher affinity.

The target of experiment [1] is orotidine 5’-monophosphate decarboxylase (MtOMPDC) (Methanothermobacter thermautotrophicus, UniProt O26232). The experiment can be described thus: X-ray crystal structure, […] Å. The experiment is classed as biochemical.
Experiment [2] deals with orotidine 5’-monophosphate decarboxylase (MtOMPDC) (Methanothermobacter thermautotrophicus, UniProt O26232, D70G).
Chain of orotidine 5’-monophosphate decarboxylase (MtOMPDC) (Methanothermobacter thermautotrophicus, UniProt O26232, D70G) (O26232 whole entry D70G): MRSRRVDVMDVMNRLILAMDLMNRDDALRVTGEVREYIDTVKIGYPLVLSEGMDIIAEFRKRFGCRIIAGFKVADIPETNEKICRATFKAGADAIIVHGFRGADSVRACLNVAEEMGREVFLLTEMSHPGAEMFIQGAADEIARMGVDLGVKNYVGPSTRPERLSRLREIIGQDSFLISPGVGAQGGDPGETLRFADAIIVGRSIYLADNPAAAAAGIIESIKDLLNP

Chain of orotidine 5’-monophosphate decarboxylase (MtOMPDC) (Methanothermobacter thermautotrophicus, UniProt O26232) (O26232 whole entry): as the sequence (O26232 whole entry D70G) above, with G70D counted along it

`O=C1CC(C(=O)O)N([C@@H]2O[C@H](COP(=O)(O)O)[C@@H](O)[C@H]2O)C(=O)N1` (stereo partly drawn) [(6R)-H2OMP] came in with a Ki in experiment [1] of 100 µM.
With `O=c1[nH]c(=O)n([C@@H]2O[C@H](COP(=O)(O)O)[C@@H](O)[C@H]2O)cc1F` [FUMP], the “X-ray crystal structure, 1.3 Å; also H6 exchange by NMR” value in experiment [2] was “structures were obtained for D70G in the absence of ligands and complexed with UMP and FUMP”.
